Test [1] has as its target T1, C. difficile full-length toxin TcdB (Clostridioides difficile, UniProt P18177).
T1 construct: C. difficile full-length toxins (TcdA or TcdB); purchased EMD Millipore 616377
In words: cell-based.

Test [2] deals with C. difficile toxin (TcdA and TcdB, ~1:1). In words: Murine C. difficile toxin model (intrarectal toxin). As to conditions: murine C. difficile toxin model, PO, 50 mg/kg body weight. In kind it is in vivo, C57BL/6 mice. The method, then: In the following studies, we established a murine C. difficile toxin model with modifications from a published murine model (Hirota, Iablokov et al. 2012). Details of the murine C. difficile toxin model are described in the “Experimental Protocols” (below). C. difficile toxins were isolated from a culture of the C. difficile strain VPI 10463. C. difficile toxins consisted of TcdA and TcdB (˜1:1 ratio of TcdA:TcdB). Respective TcdA and TcdB concentrations were determined by enzyme-linked immunosorbant assay (ELISA). In our mouse model, C. difficile toxins were administered intrarectally to evaluate their pathological effects.
We administered C. difficile toxin (12.5 μg/mouse) via intrarectal instillation into female C57BL/6 mice. Four (4) animals were used in each group. Four (4) hours after the toxin administration, the mice were euthanized. The colons were excised from the animals and washed with phosphate buffered saline (PBS). The colon lengths were measured. Excised colon tissues were stored at −70° C. for chemical analysis of interleukin-1β(IL-1β) and myeloperosidase (MPO) in tissues, which are the hallmarks of colon inflammation. Excised colon tissues were also stored at room temperature in 10% neutral buffered formalin for histopathological analysis.
Using the murine C. difficile toxin model (Example 61), we evaluated the efficacy of Example 6a in reducing the C. difficile toxin activity. In this study, the isolated toxin (12.5 μg) was diluted in 50 μl of PBS and mixed with a 50 μl suspension of Example 6a (10 mg/mL) in 1% carboxymethyl cellulose and 0.5% Tween 80 to achieve a fixed dose of […] of Example 6a (0.5 mg in mice weighing ˜20 g) and C. difficile toxin (12.5 μg). Three (3) animals were used in each group.
In this study, we evaluated the efficacy of Example 6a via different routes of administration (i.e., oral (PO) and intraperitoneal (IP) administrations) in the same murine C. difficile toxin model (Example 61). In both PO and IP dosages, Example 6a was prepared as 5 mg/mL solutions in 20% PEG-400, 0.4% carboxymethyl cellulose and 0.2% Tween 80. Example 6a was administered at a final dose of 50 mg/kg body weight. Three (3) mice were used in each group (i.e., vehicle (control), PO and IP).
Using the murine C. difficile toxin model (Example 63), we further tested the efficacy of four (4) additional compounds (i.e., Example 6a, Example 5ae, Example 4cl, and Example 5al) via PO administration. All of the compounds were dosed orally at 50 mg/kg body weight. In three separate studies a total of three (3) to fourteen (14) mice were used in each group.
We evaluated the efficacy of additional compounds in reducing C. difficile toxicity. Using the PO administration (Example 63), we further tested 30 compounds (Table 34). All of the compounds were dosed orally at 50 mg/kg body weight. Three (3) to fourteen (14) animals were used for each compound. % inhibition was determined by the following formula: […]
An overnight culture of C. difficile strain VPI 10463 (American Type Culture Collection) was grown at 37° C. in Brain-Heart Infusion (BHI) broth using the GasPak EZ Anaerobe Pouch System (Becton Dickinson). 2 mL of the culture was added to 28 mL of phosphate buffered saline (PBS) in a gamma-irradiated, 10,000 molecular weight cut-off, 30-70 ml Slide-A-Lyzer G2 dialysis cassette (Pierce). This cassette was submerged in 1 L of BHI broth in a 2 L beaker and incubated under anaerobic conditions for 5 days at 37° C. The culture was then transferred to a 50 mL conical tube and the cassette was washed with 10 mL of PBS. The combined culture and wash were centrifuged at 2,000 g for 20 minutes to pellet the bacteria and the supernatant was filtered through a 0.2 μm syringe filter. The filtrate was then applied to a 20 mL 150 K molecular weight cut-off concentration column (Pierce) and centrifuged at 2,000 g for 15 minutes. Concentrated supernatant was stored at 4° C. […]

For test [3], the target named is T2, recombinant glucosyltransferase domain of C. difficile Toxin B/TcdB (Clostridioides difficile, UniProt P18177).
T2 construct: 6-His (C); purchased R&D Systems 6246-GT
Briefly: biochemical.

The target of test [4] is T3, C. difficile full-length toxin TcdA (Clostridioides difficile, UniProt P16154).
T3 construct: C. difficile full-length toxins (TcdA or TcdB); purchased Enzo Life Sciences BML-G140-0050
In words: cell-based.

The term IC50 denotes the concentration that gives 50% inhibition.

T1 sequence (P18177 2-2366 limits assumed): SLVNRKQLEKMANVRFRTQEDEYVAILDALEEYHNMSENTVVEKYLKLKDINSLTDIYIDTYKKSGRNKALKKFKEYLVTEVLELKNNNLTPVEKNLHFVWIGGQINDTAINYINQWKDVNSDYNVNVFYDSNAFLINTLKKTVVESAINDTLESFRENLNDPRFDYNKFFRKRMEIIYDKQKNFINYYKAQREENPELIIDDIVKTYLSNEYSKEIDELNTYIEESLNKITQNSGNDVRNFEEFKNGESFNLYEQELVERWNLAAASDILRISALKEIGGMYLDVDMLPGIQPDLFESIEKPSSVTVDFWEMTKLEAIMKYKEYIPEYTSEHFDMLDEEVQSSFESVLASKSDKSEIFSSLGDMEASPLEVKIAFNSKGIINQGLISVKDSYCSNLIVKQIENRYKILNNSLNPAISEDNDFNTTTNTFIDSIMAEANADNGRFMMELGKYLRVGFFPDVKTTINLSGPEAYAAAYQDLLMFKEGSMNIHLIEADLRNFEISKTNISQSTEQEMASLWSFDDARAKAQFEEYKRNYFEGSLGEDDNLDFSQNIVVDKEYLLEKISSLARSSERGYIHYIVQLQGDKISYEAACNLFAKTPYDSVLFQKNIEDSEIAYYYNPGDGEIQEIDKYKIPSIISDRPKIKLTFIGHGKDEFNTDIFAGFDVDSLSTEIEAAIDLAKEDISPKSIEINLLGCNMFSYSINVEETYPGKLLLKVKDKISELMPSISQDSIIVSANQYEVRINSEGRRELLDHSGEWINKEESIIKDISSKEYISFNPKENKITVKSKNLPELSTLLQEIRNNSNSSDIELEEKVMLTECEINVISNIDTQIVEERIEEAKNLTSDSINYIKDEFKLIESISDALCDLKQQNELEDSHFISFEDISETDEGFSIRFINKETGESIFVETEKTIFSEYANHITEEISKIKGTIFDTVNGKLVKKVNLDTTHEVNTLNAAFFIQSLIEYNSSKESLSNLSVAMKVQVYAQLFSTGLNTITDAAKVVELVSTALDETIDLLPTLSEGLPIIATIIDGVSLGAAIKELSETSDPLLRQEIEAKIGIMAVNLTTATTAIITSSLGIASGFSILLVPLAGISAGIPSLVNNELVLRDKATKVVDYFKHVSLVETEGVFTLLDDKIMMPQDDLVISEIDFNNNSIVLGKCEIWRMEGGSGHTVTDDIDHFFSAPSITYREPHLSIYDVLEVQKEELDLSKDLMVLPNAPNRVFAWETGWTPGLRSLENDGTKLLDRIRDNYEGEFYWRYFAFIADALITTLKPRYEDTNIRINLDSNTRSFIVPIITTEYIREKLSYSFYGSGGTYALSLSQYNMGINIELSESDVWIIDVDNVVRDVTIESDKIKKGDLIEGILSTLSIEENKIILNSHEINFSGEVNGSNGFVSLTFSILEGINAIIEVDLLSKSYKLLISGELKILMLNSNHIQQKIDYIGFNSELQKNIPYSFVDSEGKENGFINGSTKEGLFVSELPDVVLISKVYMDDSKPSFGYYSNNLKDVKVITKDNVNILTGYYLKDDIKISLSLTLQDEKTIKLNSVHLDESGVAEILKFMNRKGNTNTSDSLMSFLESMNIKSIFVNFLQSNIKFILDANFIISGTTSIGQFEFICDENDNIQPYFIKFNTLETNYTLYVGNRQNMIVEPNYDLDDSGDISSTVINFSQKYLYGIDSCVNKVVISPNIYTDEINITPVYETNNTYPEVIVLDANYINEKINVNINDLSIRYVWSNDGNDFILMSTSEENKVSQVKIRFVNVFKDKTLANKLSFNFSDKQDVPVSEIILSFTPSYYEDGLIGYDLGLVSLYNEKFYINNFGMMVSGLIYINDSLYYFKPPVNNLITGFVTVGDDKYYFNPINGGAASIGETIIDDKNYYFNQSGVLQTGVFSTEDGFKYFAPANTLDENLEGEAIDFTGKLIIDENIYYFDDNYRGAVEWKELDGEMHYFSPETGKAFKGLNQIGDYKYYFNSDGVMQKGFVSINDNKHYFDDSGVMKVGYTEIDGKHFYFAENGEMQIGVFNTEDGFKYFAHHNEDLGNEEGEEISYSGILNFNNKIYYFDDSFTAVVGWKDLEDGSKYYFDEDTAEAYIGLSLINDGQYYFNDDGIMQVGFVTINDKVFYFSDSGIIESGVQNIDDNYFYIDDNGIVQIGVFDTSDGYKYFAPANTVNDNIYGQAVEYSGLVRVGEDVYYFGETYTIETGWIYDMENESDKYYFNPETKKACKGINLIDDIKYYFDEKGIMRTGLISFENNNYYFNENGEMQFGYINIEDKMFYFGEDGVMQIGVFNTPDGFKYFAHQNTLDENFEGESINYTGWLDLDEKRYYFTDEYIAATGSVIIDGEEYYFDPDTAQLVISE
T3 sequence (P16154 whole entry, looked up): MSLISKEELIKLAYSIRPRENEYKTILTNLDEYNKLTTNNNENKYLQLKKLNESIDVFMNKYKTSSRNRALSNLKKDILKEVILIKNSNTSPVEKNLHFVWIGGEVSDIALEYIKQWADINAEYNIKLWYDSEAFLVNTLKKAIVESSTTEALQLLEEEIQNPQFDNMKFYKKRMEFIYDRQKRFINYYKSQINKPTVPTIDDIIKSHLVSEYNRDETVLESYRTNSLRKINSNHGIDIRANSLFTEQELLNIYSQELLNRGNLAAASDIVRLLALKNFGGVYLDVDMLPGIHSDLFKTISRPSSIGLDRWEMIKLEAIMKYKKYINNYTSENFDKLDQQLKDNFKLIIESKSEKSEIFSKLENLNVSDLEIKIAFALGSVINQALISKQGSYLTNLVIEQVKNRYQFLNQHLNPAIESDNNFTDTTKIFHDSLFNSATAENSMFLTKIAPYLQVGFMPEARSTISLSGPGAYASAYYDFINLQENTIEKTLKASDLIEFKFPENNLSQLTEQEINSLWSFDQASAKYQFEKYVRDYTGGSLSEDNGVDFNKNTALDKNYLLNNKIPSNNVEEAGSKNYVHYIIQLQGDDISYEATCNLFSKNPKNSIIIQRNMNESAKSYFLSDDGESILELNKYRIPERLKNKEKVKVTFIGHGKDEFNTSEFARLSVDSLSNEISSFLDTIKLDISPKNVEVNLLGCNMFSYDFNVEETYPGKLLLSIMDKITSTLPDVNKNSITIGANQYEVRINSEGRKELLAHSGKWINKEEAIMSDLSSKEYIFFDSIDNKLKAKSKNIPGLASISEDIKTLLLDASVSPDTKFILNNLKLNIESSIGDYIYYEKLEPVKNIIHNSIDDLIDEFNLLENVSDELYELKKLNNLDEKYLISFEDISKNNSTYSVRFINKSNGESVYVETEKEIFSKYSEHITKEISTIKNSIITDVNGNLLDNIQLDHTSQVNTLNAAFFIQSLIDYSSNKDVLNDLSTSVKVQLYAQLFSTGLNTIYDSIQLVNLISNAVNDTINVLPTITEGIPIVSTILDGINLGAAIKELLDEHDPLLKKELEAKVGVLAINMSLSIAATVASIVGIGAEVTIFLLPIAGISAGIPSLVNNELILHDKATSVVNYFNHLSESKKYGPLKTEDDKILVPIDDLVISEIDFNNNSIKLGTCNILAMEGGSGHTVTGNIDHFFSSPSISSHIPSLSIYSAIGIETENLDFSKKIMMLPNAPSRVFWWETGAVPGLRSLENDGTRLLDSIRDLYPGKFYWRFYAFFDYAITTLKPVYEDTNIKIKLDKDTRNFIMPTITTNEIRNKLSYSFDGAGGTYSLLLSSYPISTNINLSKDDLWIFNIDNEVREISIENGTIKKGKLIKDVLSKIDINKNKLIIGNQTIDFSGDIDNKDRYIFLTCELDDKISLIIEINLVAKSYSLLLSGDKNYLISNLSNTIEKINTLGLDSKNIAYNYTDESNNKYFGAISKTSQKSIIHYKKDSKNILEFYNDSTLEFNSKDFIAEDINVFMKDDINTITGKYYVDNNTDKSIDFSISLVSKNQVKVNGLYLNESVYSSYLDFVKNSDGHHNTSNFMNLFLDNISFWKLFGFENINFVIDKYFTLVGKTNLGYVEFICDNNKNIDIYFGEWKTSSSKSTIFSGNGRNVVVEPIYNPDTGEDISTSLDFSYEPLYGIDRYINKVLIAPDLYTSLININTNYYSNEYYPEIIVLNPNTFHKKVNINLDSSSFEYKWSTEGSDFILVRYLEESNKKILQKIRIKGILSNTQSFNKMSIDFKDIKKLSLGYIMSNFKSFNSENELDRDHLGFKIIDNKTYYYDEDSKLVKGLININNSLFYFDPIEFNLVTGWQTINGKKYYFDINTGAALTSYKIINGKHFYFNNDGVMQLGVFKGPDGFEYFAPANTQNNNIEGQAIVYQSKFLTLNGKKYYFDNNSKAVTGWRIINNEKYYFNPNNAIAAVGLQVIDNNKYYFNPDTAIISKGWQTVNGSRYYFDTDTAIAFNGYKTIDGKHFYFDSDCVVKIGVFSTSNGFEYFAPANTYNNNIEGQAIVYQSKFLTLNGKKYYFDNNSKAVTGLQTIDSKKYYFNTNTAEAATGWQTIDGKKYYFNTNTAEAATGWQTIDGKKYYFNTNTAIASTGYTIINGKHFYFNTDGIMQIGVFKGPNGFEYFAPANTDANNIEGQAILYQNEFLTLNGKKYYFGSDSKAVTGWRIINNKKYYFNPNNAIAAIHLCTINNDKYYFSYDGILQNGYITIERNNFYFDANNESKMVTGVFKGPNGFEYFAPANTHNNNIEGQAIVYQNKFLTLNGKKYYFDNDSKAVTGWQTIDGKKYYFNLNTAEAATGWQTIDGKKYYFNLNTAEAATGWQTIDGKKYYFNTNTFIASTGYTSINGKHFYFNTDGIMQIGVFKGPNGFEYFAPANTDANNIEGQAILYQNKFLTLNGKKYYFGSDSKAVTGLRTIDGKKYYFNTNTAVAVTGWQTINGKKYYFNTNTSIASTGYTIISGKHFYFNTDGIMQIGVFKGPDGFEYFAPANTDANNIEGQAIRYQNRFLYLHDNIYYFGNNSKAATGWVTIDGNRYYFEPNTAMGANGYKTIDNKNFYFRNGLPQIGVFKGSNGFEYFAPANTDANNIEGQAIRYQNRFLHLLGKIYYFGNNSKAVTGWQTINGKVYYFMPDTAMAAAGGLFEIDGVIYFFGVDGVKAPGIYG

In the case of `O=C(c1ccccn1)c1ccc(CN2C(=O)c3ccc(Cl)cc3NC(=O)[C@H]2Cc2ccccn2)cc1Cl` [Example 11g, (R)-8-Chloro-4-(3-chloro-4-picolinoylbenzyl)-3-(pyridin-2-ylmethyl)-3,4-dihydro-1H-benzo[e][1,4]diazepine-2,5-dione], the IC50 in test [1] is 1000 to 10000 nM; in test [3], less than 100 nM; in test [4], more than 10000 nM. For the same compound, in test [2], the “IL-1β (% Inhibition)” value is listed as 15%. Moreover, the “MPO (% Inhibition)” value in test [2] is reported as 28%.
Taken in the same sequence, the figures for `O=C(Nc1ccc(CN2C(=O)c3ccc(Cl)cc3NC(=O)[C@H]2Cc2ccccn2)cc1)c1c[nH]cn1` [Example 27j, (R)-N-(4-((8-Chloro-2,5-dioxo-3-(pyridin-2-ylmethyl)-2,3-dihydro-1H-benzo[e][1,4]diazepin-4(5H)-yl)methyl)phenyl)-1H-imidazole-4-carboxamide] were 1000 to 10000 nM, less than 100 nM, more than 10000 nM, 41% and 1%.
Regarding `O=C(Nc1ccc(F)cn1)c1ccc(CN2C(=O)c3ccc(Cl)cc3NC(=O)[C@H]2Cc2ccccn2)cc1` [Example 4a, (R)-4-((8-Chloro-2,5-dioxo-3-(pyridin-2-ylmethyl)-2,3-dihydro-1H-benzo[e][1,4]diazepin-4(5H)-yl)methyl)-N-(5-fluoropyridin-2-yl)benzamide], the IC50 was less than 100 nM in test [1], less than 100 nM in test [3] and 1000 to 10000 nM in test [4]. Moreover, in test [2], the “IL-1β (% Inhibition)” value came to 30%. For the same compound, in test [2], the “MPO (% Inhibition)” value is 51%.
With `Cc1ccc(C(=O)c2ccc(CN3C(=O)c4ccc(Cl)cc4NC(=O)[C@H]3Cc3ccccn3)cc2)nc1` [Example 11b, (R)-8-Chloro-4-(4-(5-methylpicolinoyl)benzyl)-3-(pyridin-2-ylmethyl)-3,4-dihydro-1H-benzo[e][1,4]diazepine-2,5-dione], the IC50 in test [1] was 1000 to 10000 nM; in test [3], less than 100 nM; in test [4], more than 10000 nM. Besides, the “IL-1β (% Inhibition)” value in test [2] was 52%. Moreover, the “MPO (% Inhibition)” value in test [2] is listed as 100%.
Taken in the same sequence, the figures for `COc1cc(CN2C(=O)c3ccc(Cl)cc3NC(=O)[C@H]2Cc2ccccn2)ccc1C(=O)Nc1ccc(C)cn1` [Example 4cm, (R)-4-((8-Chloro-2,5-dioxo-3-(pyridin-2-ylmethyl)-2,3-dihydro-1H-benzo[e][1,4]diazepin-4(5H)-yl)methyl)-2-methoxy-N-(5-methylpyridin-2-yl)benzamide] were 100 to 999 nM, less than 100 nM, more than 10000 nM, 49% and 35%.
`COc1cnc(NC(=O)c2ccc(CN3C(=O)c4ccc(Cl)cc4NC(=O)[C@H]3Cc3ccccn3)cc2Cl)nc1` [Example 5ab, (R)-2-Chloro-4-((8-chloro-2,5-dioxo-3-(pyridin-2-ylmethyl)-2,3-dihydro-1H-benzo[e][1,4]diazepin-4(5H)-yl)methyl)-N-(5-methoxypyrimidin-2-yl)benzamide]: the results for the IC50 in test [1], in test [3] and in test [4] were less than 100 nM, less than 100 nM and 1000 to 10000 nM, respectively. In addition, the “IL-1β (% Inhibition)” value in test [2] is reported as 100%. Further, the “MPO (% Inhibition)” value in test [2] stood at 100%.
Regarding `O=C(c1ccc(CN2C(=O)c3ccc(Cl)cc3NC(=O)[C@H]2Cc2ccccn2)cc1)c1ccccn1` [Example 11a, (R)-8-Chloro-4-(4-picolinoylbenzyl)-3-(pyridin-2-ylmethyl)-3,4-dihydro-1H-benzo[e][1,4]diazepine-2,5-dione], the figures for the IC50 in test [1], in test [3] and in test [4] were 1000 to 10000 nM, less than 100 nM and more than 10000 nM, respectively. Moreover, the “IL-1β (% Inhibition)” value in test [2] is listed as 22%. The “MPO (% Inhibition)” value in test [2] was 0%.
For the compound `Cc1cnc2c(c1)CCN2C(=O)c1ccc(CN2C(=O)c3ccc(Cl)cc3NC(=O)[C@H]2Cc2ccccn2)cc1Cl` [Example 4ad, (R)-8-Chloro-4-(3-chloro-4-(5-methyl-2,3-dihydro-1H-pyrrolo[2,3-b]pyridine-1-carbonyl)benzyl)-3-(pyridin-2-ylmethyl)-3,4-dihydro-1H-benzo[e][1,4]diazepine-2,5-dione], the values for the IC50 in test [1], in test [3] and in test [4] were less than 100 nM, less than 100 nM and 100 to 999 nM, respectively. Further, in test [2], the “IL-1β (% Inhibition)” value is recorded as 80%. Further, the “MPO (% Inhibition)” value in test [2] was 100%.
On to `COc1cc(CN2C(=O)c3ccc(Cl)cc3NC(=O)[C@H]2Cc2ccccn2)ccc1C(=O)Nc1ncc(C)cn1` [Example 5am, (R)-4-((8-Chloro-2,5-dioxo-3-(pyridin-2-ylmethyl)-2,3-dihydro-1H-benzo[e][1,4]diazepin-4(5H)-yl)methyl)-2-methoxy-N-(5-methylpyrimidin-2-yl)benzamide], for which the figures for the IC50 in test [1], in test [3] and in test [4] were 100 to 999 nM, less than 100 nM and 1000 to 10000 nM, respectively. Moreover, in test [2], the “IL-1β (% Inhibition)” value amounted to 54%. Also, the “MPO (% Inhibition)” value in test [2] is reported as 31%.
Taken in the same sequence, the figures for `COc1cnc(NC(=O)c2ccc(CN3C(=O)c4ccc(Cl)cc4NC(=O)[C@H]3Cc3ccccn3)cc2OC)cn1` [Example 5ak, (R)-4-((8-Chloro-2,5-dioxo-3-(pyridin-2-ylmethyl)-2,3-dihydro-1H-benzo[e][1,4]diazepin-4(5H)-yl)methyl)-2-methoxy-N-(5-methoxypyrazin-2-yl)benzamide] were 100 to 999 nM, less than 100 nM, 1000 to 10000 nM, 71% and 73%.
For the compound `Cn1cc(C(=O)c2ccc(CN3C(=O)c4ccc(Cl)cc4NC(=O)[C@H]3Cc3ccccn3)cc2)c2ncccc21` [Example 31a, (R)-8-Chloro-4-(4-(1-methyl-1H-pyrrolo[3,2-b]pyridine-3-carbonyl)benzyl)-3-(pyridin-2-ylmethyl)-3,4-dihydro-1H-benzo[e][1,4]diazepine-2,5-dione], the IC50 in test [1] is 100 to 999 nM; in test [3], less than 100 nM; in test [4] it was 1000 to 10000 nM. Further, in test [2], the “IL-1β (% Inhibition)” value is recorded as 100%. For the same compound, the “MPO (% Inhibition)” value in test [2] turned out to be 100%.
Consider `COc1cnc(NC(=O)c2ccc(CN3C(=O)c4ccc(Cl)cc4NC(=O)[C@H]3Cc3ccccn3)cc2Cl)cn1` [Example 4ci, (R)-2-Chloro-4-((8-chloro-2,5-dioxo-3-(pyridin-2-ylmethyl)-2,3-dihydro-1H-benzo[e][1,4]diazepin-4(5H)-yl)methyl)-N-(5-methoxypyrazin-2-yl)benzamide], for which the IC50 is 100 to 999 nM in test [1], less than 100 nM in test [3] and 1000 to 10000 nM in test [4]. The “IL-1β (% Inhibition)” value in test [2] came out at 86%. Moreover, the “MPO (% Inhibition)” value in test [2] came to 19%.
With `COc1ccc(NC(=O)c2ccc(CN3C(=O)c4ccc(Cl)cc4NC(=O)[C@H]3Cc3ccccn3)cc2Cl)nc1` [Example 4by, (R)-2-Chloro-4-((8-chloro-2,5-dioxo-3-(pyridin-2-ylmethyl)-2,3-dihydro-1H-benzo[e][1,4]diazepin-4(5H)-yl)methyl)-N-(5-methoxypyridin-2-yl)benzamide], the IC50 in test [1] was less than 100 nM; in test [3], less than 100 nM; in test [4], 100 to 999 nM. In addition, in test [2], the “IL-1β (% Inhibition)” value is 46%. The “MPO (% Inhibition)” value in test [2] is listed as 1%.

The record behind these values is patent US10669242B2 (priority 2016, dated 2020).
